pIC50: −log10 of the molar value. Counter-ions that a name gives are not always drawn.

These results are taken from PMC8780580, “The Neuroactive Steroid Pregnanolone Glutamate: Anticonvulsant Effect, Metabolites and Its Effect on Neurosteroid Levels in Developing Rat Brains” (Pharmaceuticals, 2021).

Data set [1] can be described thus: Steroidomic (GC-MS/MS) analysis of hippocampal tissue after PA-G administration.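 As to all read-outs here: hippocampal steroids quantified by GC-MS/MS, covering free and conjugated forms after hydrolysis, compared against intact rats and rats injected with CDX vehicle alone, five animals per group.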 The following applies: for measurable concentration in the rat brain / increase in concentration compared with basal levels: after PA-G i.p.; for fold increase in the concentration in the rat hippocampus above the basal levels / percentage of total significantly increased (5β) steroids in the rat hippocampus / concentration at 20 min: 20 min after PA-G i.p., 1 mg/kg in CDX; for concentration at 20 min: male, Wistar, rat, in vivo, ip, Steroid concentration in hippocampal tissue, PA-G-Treated (P).
Method: In a separate experiment, samples of the hippocampus were obtained from male albino Wistar rats in 6 experimental groups consisting of P12 and P25 animals that were either intact (I), controls (C, i.p. application of a solution of CDX), or in the experimental group (i.p. application of PA-G in a solution of CDX at a dose of 1 mg/kg). Each group consisted of 5 animals. The animals were sacrificed using ether anaesthesia (Penta, Czech Republic) 30 min after administration of the drug. The hippocampi were quickly removed, weighed, and frozen at −80 °C in sterile plastic microvials until analysis.
An amount of 17–100 mg of the hippocampal tissue was minced and then administered into screw-cap tubes. Next, 2 mL of methanol with a mixture of internal standards was added, and the samples were incubated for 1 week in a refrigerator at 4 °C with agitation for 2 min once a day. Afterwards, the extract was transferred into new screw-cap tubes and dried in a vacuum centrifuge at 45 °C. After that, 1 mL of water of chromatographic purity was added, and the samples were further treated as described in our recently published paper [76].
Briefly, the unconjugated steroids were extracted from a testing sample with diethyl-ether, the extract was dried, and the lipids were separated by partitioning between a mixture of methanol with water (4:1, v/v) and pentane. The pentane phase was discarded, and the polar phase was dried and used for further analysis of the unconjugated steroids. Steroid conjugates remaining in the polar residue after diethyl ether were hydrolyzed to their parent hydroxy steroids (unconjugated molecules) and analyzed.

For a further data set, the system named is NMDARs. The following applies: NMDA-induced currents, transfected HEK293 cells; cited from earlier work.
The test system of data set [2] is pentylenetetrazol-induced seizures. Put plainly: Pentylenetetrazol (PTZ)-induced seizures in 12- and 25-day-old rats. The format is in vivo, male Wistar albino rats. The method, then: Solutions of PA-G and PA-S were administered intraperitoneally at a concentration of 1 mg/mL, and doses of 1, 5, 10, and 20 mg/kg were used. The solutions of zuranolone were administered intraperitoneally at a concentration of 1 mg/mL, and doses of 0.5, 1, 5, and 10 mg/kg were used. Controls were injected with CDX solution in a volume corresponding to the highest dose (i.e., 20 mL/kg). The same control group was used for PA-S and PA-G. Pentylenetetrazol (PTZ, Sigma Aldrich, Gillingham, Dorset, UK) was dissolved in water in a concentration of 50 mg/mL and was administered subcutaneously at a dose of 100 mg/kg 20 min after the administration of PA-G or PA-S. Each age and dose group comprised 8 animals. The rats were placed individually into plexiglass boxes and were then observed for 30 min after PTZ injection. The incidence, severity, and latencies of seizures were assessed. Younger animals were placed on a pad heated to 34 °C, i.e., to the temperature in the nest for the whole duration of the experiment because of immature thermoregulation. Generalized tonic-clonic or clonic seizures with a loss of righting reflexes were present after a dose of 100 mg/kg of PTZ in all control animals in both age groups. […] The severity of seizures was quantified using a five-point scale as follows: 0—no changes; 0.5—abnormal behaviour (e.g., automatisms, increased orienting reaction); 1—isolated myoclonic jerks; 2—atypical or prolonged minimal seizures; 3—clonic seizures (mS) involving head and forelimb muscles with preserved righting reflexes (older-term minimal pentetrazol seizures); 4—generalized seizures without the tonic phase (GCS); 5—complete generalized tonic-clonic seizures (GTCS).

Where [3] appears, read: P12 rats, i.p. doses of 5 and 10 mg/kg.

For the compound 17α-hydroxyprogesterone, in data set [1] (1 mg/kg), the “measurable concentration in the rat brain” value was “did not detect measurable concentrations”.
Turning to `C[C@]12CC[C@@H](O)C[C@H]1CC[C@@H]1[C@@H]2[C@@H](O)C[C@]2(C)[C@@H](C(=O)CO)CC[C@@H]12` [3α,5β-THCC, 3α,5β-tetrahydrocorticosterone], the figures for the “fold increase in the concentration in the rat hippocampus above the basal levels” value (from here on “fold increase in the concentration”) in data set [1] (P12) and in data set [1] (P25) were 4.47 x and 1 x, respectively. The “percentage of total significantly increased (5β) steroids in the rat hippocampus” value is given as “approximately 8%” in data set [1] (P12, 1 mg/kg); 8.12% in data set [1] (P12, listed as 3α,5β-Tetrahydrocorticosterone (3α,5β-THCC), 1 mg/kg); “less than 0.01%” in data set [1] (P25).
On to `C[C@H](O)[C@@]1(O)CCC2C3CC[C@@H]4C[C@H](O)CC[C@]4(C)C3CC[C@@]21C` (stereo partly drawn) [3α,17α,20α-Trihydroxy-5β-pregnane], for which the “fold increase in the concentration” value in data set [1] (P12) came out at 9.16 x; in data set [1] (P25), 2.39 x. Further, the “percentage of total significantly increased (5β) steroids in the rat hippocampus” value in data set [1] (P12) amounted to 0.74%; in data set [1] (P25), 1.05%. Besides, the concentration at 20 min in data set [1] (1 mg/kg, 12-day-old rats) came to 5.86 ng/g; in data set [1] (1 mg/kg, 25-day-old rats), 0.951 ng/g.
On to `C[C@H](O)[C@H]1CCC2C3CC[C@@H]4C[C@H](O)CC[C@]4(C)C3CC[C@@]21C` (stereo partly drawn) [3α,20α-Dihydroxy-5β-pregnane], for which the entries for the “fold increase in the concentration” value in data set [1] (P12) and in data set [1] (P25) were 78.1 x and 15.7 x, respectively. For the same compound, the “percentage of total significantly increased (5β) steroids in the rat hippocampus” value is 1.23% in data set [1] (P12) and 1.72% in data set [1] (P25). In addition, the concentration at 20 min amounted to 8.42 ng/g in data set [1] (1 mg/kg, 12-day-old rats) and 0.919 ng/g in data set [1] (1 mg/kg, 25-day-old rats).
For the compound `CC(=O)[C@H]1CCC2C3CC[C@@H]4CC(=O)CC[C@]4(C)C3CC[C@@]21C` (stereo partly drawn) [5β-Dihydroprogesterone, 5β-dihydroprogesterone], the “fold increase in the concentration” value is recorded as 19 x in data set [1] (P12) and 1.9 x in data set [1] (P25). In addition, the “percentage of total significantly increased (5β) steroids in the rat hippocampus” value in data set [1] (P12) was determined as 0.07%; in data set [1] (P25) it was 0.09%. The concentration at 20 min was 0.477 ng/g in data set [1] (1 mg/kg, 12-day-old rats) and 0.0943 ng/g in data set [1] (1 mg/kg, 25-day-old rats).
Consider `CC(=O)[C@@]1(O)CCC2C3CC[C@H]4C[C@H](O)CC[C@]4(C)C3CC[C@@]21C` (stereo partly drawn) [17-Hydroxyallopregnanolone], for which the concentration at 20 min was 8.36 ng/g in data set [1] (1 mg/kg, 12-day-old rats) and 3.19 ng/g in data set [1] (1 mg/kg, 25-day-old rats).
`CC(=O)[C@@]1(O)CC[C@H]2[C@@H]3CC[C@@H]4C[C@H](OC(=O)[C@@H](N)CCC(=O)O)CC[C@]4(C)[C@H]3CC[C@@]21C` [17-Hydroxypregnanolone glutamate]: the “fold increase in the concentration” value in data set [1] (P12) is reported as 84.6 x; in data set [1] (P25), 14.7 x. Further, the “percentage of total significantly increased (5β) steroids in the rat hippocampus” value amounted to 0.04% in data set [1] (P12) and 0.015% in data set [1] (P25).
Take `CC(=O)[C@@]1(O)CC[C@H]2[C@@H]3CC=C4CCCC[C@]4(C)[C@H]3CC[C@@]21C` [17α-hydroxypregn-5-en-20-one]: the “measurable concentration in the rat brain” value in data set [1] (1 mg/kg) is reported as “did not detect measurable concentrations”.
Take `C[C@H](O)[C@H]1CC[C@H]2[C@@H]3CC[C@@H]4C[C@H](OC(=O)[C@@H](N)CCC(=O)O)CC[C@]4(C)[C@H]3CC[C@]12C` [(20S)-Hydroxypregnanolone glutamate]: in data set [1] (P12), the “fold increase in the concentration” value was found to be 99.7 x and the “percentage of total significantly increased (5β) steroids in the rat hippocampus” value was found to be 0.53%. In data set [1] (P25), the “fold increase in the concentration” value stood at 10.2 x and the “percentage of total significantly increased (5β) steroids in the rat hippocampus” value came out at 0.93%.
For the compound `CC(=O)[C@H]1CC[C@H]2[C@@H]3CC[C@H]4C[C@H](O)CC[C@]4(C)[C@H]3CC[C@]12C` [Allopregnanolone, allopregnanolone], the concentration at 20 min in data set [1] (1 mg/kg, 12-day-old rats) was found to be 0.246 ng/g; in data set [1] (1 mg/kg, 25-day-old rats), 0.144 ng/g.
For `C[C@]12CC[C@H](OS(=O)(=O)O)CC1=CCC1C2CC[C@@]2(C)C1CC[C@@H]2O` (stereo partly drawn) [Androstenediol sulfate, androstenediol sulfate] the same measures were 6.07 ng/g and 1.62 ng/g.
The like results for `C[C@]12CC[C@H]3[C@@H](CC=C4C[C@@H](O)CC[C@@]43C)[C@@H]1CC[C@@H]2O` [Androstenediol, androstenediol] were, in that order, 0.758 ng/g and 0.364 ng/g.
Consider `C[C@]12CC[C@H](O)CC1=CC[C@@H]1[C@@H]2CC[C@]2(C)C(=O)CC[C@@H]12` [Dehydroepiandrosterone (DHEA), dehydroepiandrosterone], for which the concentration at 20 min in data set [1] (1 mg/kg, 12-day-old rats) is 1.13 ng/g; in data set [1] (1 mg/kg, 25-day-old rats), 0.644 ng/g.
Take `C[C@]12CC[C@@H](O)C[C@H]1CC[C@@H]1[C@@H]2CC[C@]2(C)C(=O)CC[C@@H]12` [Etiocholanolone (ETIO), etiocholanolone]: the “percentage of total significantly increased (5β) steroids in the rat hippocampus” value in data set [1] (P12) turned out to be 0.1%; in data set [1] (P25), 0.08%. Further, the “increase in concentration compared with basal levels” value in data set [1] (P12 animals, 1 mg/kg) is on record as roughly 12 fold; in data set [1] (P25 animals, 1 mg/kg) it was roughly 2 fold.
Consider `CC(=O)[C@H]1CC[C@H]2[C@@H]3CC[C@@H]4C[C@H](O)CC[C@]4(C)[C@H]3CC[C@]12C` [PA, pregnanolone], for which the “fold increase in the concentration” value in data set [1] (P12) is 272 x; in data set [1] (P25), 12.8 x. Besides, the “percentage of total significantly increased (5β) steroids in the rat hippocampus” value in data set [1] (P12) came out at 9.47%; in data set [1] (P25), 9.30%. Moreover, the “increase in concentration compared with basal levels” value in data set [1] (P12 animals, 1 mg/kg) is recorded as “up to 272 fold”. Besides, the concentration at 20 min in data set [1] (1 mg/kg, 12-day-old rats) worked out at 63.6 ng/g; in data set [1] (1 mg/kg, 25-day-old rats), 5.02 ng/g. Moreover, the “percentage of the brain's total 5β-steroids in the hippocampus after PA-G administration” value in data set [1] (stated over P12 and P25 animals, 20 min after PA-G) is “approximately 10%”.
In general, pIC50 refers to the IC50 on a negative log10 scale, so that one unit is a factor of ten. In the case of `CC(=O)[C@H]1CC[C@H]2[C@@H]3CC[C@@H]4C[C@H](OS(=O)(=O)O)CC[C@]4(C)[C@H]3CC[C@]12C` [PA-S, pyridinium 20-oxo-5β-pregnan-3α-yl sulfate], the pIC50 in the data set with NMDARs was 4.62. For the same compound, the “incidence of generalized seizures (GS)” value in data set [2] (P12 rats, i.p. 20 mg/kg (highest dose tested)) was “completely eliminated GS”. In data set [2] (P12 rats, i.p. doses of 5 mg/kg and higher, 20 min before PTZ 100 mg/kg s.c.), the seizure severity result was “significant decrease in seizure severity”. In data set [2] (setting [3]), the “latencies of GS” value was “significantly prolonged the latencies of GS” and the “tonic phase (TP) of GTCS” value is “completely abolished TP”. Moreover, in data set [2] (P25 rats), the “parameters of minimal seizures (mS)” value was “did not affect any parameters of mS” and the “tonic phase (TF) of GTCS” value is “did not exhibit specific effects against the TF of GTCS”. The “incidence of GS” value in data set [2] (P25 rats, chi2 test over dose groups, Fisher's tests no differences between individual groups) is “affected the incidence of GS”. Moreover, the “seizure severity (score)” value in data set [2] (P25 rats, i.p. 20 mg/kg) is given as “lower score”.
Consider `CC(=O)[C@H]1CCC2C3CC=C4C[C@@H](O)CC[C@]4(C)C3CC[C@@]21C` (stereo partly drawn) [Pregnenolone (PE), pregnenolone], for which the concentration at 20 min in data set [1] (1 mg/kg, 12-day-old rats) was found to be 4.69 ng/g; in data set [1] (1 mg/kg, 25-day-old rats) it was 3.44 ng/g.
